Like-named read-outs stand apart in the source and are kept apart here. Values belong to the molecule of their own block, whether it stands above or below them.
Assays:
PPARγ [1] = biological target: T1, PPARγ (Homo sapiens, UniProt P37231); test: PPARγ transactivation assay (luciferase reporter) in transfected CV-1 cells; format: cell-based
T1 construct: expressed in transfected cells; host or cells: CV-1 cells (ATCC CCL-70)
T1 sequence (P37231 1-505): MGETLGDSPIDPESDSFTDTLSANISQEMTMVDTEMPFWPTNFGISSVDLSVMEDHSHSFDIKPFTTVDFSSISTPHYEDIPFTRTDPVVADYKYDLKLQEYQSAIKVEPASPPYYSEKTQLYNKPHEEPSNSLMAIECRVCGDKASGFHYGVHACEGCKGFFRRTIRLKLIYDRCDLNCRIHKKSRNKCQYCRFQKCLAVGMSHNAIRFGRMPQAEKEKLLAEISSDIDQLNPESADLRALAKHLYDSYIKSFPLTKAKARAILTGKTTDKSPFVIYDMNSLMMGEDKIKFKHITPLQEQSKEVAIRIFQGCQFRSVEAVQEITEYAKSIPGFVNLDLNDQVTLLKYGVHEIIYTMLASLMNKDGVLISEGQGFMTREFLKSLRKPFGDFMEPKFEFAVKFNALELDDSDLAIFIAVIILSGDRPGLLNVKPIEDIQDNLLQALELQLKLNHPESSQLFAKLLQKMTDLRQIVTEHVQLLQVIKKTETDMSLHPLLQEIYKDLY
Experimental: PPARγ activity was determined by transactivation assays in CV-1 cells (CCL-70 line from American Type Culture Collection (ATCC), Bethesda, Md.) transfected using the GenePorter transfection reagent (Gene Therapy Systems, San Diego, Calif.) to deliver 200 ng of a PPARγ expression plasmid and 1 μg of a luciferase reporter plasmid and 400 ng pCMVSport b-gal (Gibco, Grand Island, N.J.) as an internal control. 24 hr post-transfection, cells were treated with varying concentrations of the test compounds of this invention, and incubated for an additional 24 hr. Rosiglitazone and pioglitazone, a known PPARγ full agonist, and telmisartan, a known ARB and PPARγ partial agonist (Benson et al. Hypertension (2004) in press) are used as controls. Cell extracts were assayed for luciferase and β-galactosidase activity using Promega (Madison, Wis.) assay systems. All treatments were performed in triplicate, and normalized for β-galactosidase activity. Agonist concentrations yielding half maximal activation (EC50 values) were calculated using GraphPad Prism version 3.03 (GraphPad Software, Inc., San Diego, Calif.).

[2] = format: in vivo
Experimental: An obese person (BMI: 34.4 kg/m2, waist circumference: 51 inches) with untreated hypertension, pre-diabetes and the metabolic syndrome was given telmisartan (Micardis®), 80 mg/day, for treatment of high blood pressure. […] The patient has the metabolic syndrome as defined by the National Cholesterol Education Program (NCEP). The metabolic syndrome is associated with a 5-9 fold increase in the risk for developing type 2 diabetes and a 2-3 fold increase risk in cardiovascular mortality. […] After 5 weeks on valsartan (week 15), their glucose, insulin, triglyceride levels, and HOMA-IR score increased, consistent with a reversal in the improved insulin resistance obtained with telmisartan (Table 1). Valsartan was discontinued and they were switched back to telmisartan.

PPARγ [3] = biological target: T1, PPARγ; details: Benson et al. Hypertension (2004) in press; cited from earlier work
[4] = format: in vivo, human
Experimental: A person with hypertension, hypertriglyceridemia, and type 2 diabetes was selected for therapy. […] The patient is taking another medication for type 2 diabetes but the dose of this medication is held constant throughout the trial. The patient is given telmisartan at an oral dose of 80 mg/day. […] The oral dose of telmisartan (Micardis®) is then increased to 160 mg/day. […] The telmisartan (Micardis®) therapy is continued according to the judgment of the clinician in order to maintain the improved control of the patient's blood pressure and their type 2 diabetes.

[5] = oral 80 mg/day, after three weeks
[6] = oral 160 mg/day, after seven weeks

- PPAR-γ Fold activation (PPARγ [1]; @ 0.1 uM): 2 x
- PPAR-γ Fold activation (PPARγ [1]; @ 1 μM): 24 x
- PPAR-γ Fold activation (PPARγ [1]; @ 10 μM): 34 x
- PPAR-γ Fold activation (PPARγ [1]; @ .01 uM): 1 x
Molecule: COC(=O)c1cc(CC2SC(=O)NC2=O)ccc1OCCn1c(CCCCC2CCCCC2)nc2ccccc21 (stereo not drawn) [Methyl 2-(2-(2-(4-cyclohexylbutyl)-1H-benzo[d]imidazol-1-yl)ethoxy)-5-((2,4-dioxothiazolidin-5-yl)methyl)benzoate]

- PPAR-γ Fold activation (PPARγ [1]; @ 0.1 uM): 1.2 x
- PPAR-γ Fold activation (PPARγ [1]; @ 1 μM): 6.1 x
- PPAR-γ Fold activation (PPARγ [1]; @ 10 μM): 7.4 x
Molecule: Methyl 5-((2,4-dioxothiazolidin-5-yl)methyl)-2-(2-(4-methyl-6-phenyl-2-propyl-1H-benzo[d]imidazol-1-yl)ethoxy)benzoate

Molecule: CCCCC(=O)N(Cc1ccc(-c2ccccc2-c2nnn[nH]2)cc1)[C@H](C(=O)O)C(C)C [valsartan]
- glucose, insulin, triglyceride levels, and HOMA-IR score ([2]; 160 mg/day, after 5 weeks (week 15), after switch from telmisartan): increased
- activation of PPARγ (PPARγ [3]): does not activate PPARγ

- PPAR-γ Fold activation (PPARγ [1]; @ 0.1 uM): 3.8 x
- PPAR-γ Fold activation (PPARγ [1]; @ 1 μM): 10 x
- PPAR-γ Fold activation (PPARγ [1]; @ 10 μM): 15.5 x
- PPAR-γ Fold activation (PPARγ [1]; @ .01 uM): 1.7 x
Molecule: CCCc1nc2c(C)cc(Br)cc2n1CCOc1ccc(CC2SC(=O)NC2=O)cc1C(=O)O (stereo not drawn) [2-(2-(6-Bromo-4-methyl-2-propyl-1H-benzo[d]imidazol-1-yl)ethoxy)-5-((2,4-dioxothiazolidin-5-yl)methyl)benzoic acid]

- PPARγ activation (PPARγ [1]): 2-3 fold
Molecule: CCCCC1=NC2(CCCC2)C(=O)N1Cc1ccc(-c2ccccc2-c2nnn[nH]2)cc1 [Irbesartan, reference compound]

- PPAR-γ Fold activation (PPARγ [1]; @ 0.1 uM): 1 x
- PPAR-γ Fold activation (PPARγ [1]; @ 1 μM): 5 x
- PPAR-γ Fold activation (PPARγ [1]; @ 5 uM): 9 x
- PPAR-γ Fold activation (PPARγ [1]; @ 10 μM): 11 x
Molecule: CCCc1nc2c(C)cc(-c3nc4ccccc4n3C)cc2n1Cc1ccc(-c2ccc(C(=O)OC)cc2C(=O)OC)cc1 [proaverysartan]

- PPAR-γ Fold activation (PPARγ [1]; @ 0.1 uM): 3.1 x
- PPAR-γ Fold activation (PPARγ [1]; @ 1 μM): 32 x
- PPAR-γ Fold activation (PPARγ [1]; @ 10 μM): 41 x
- PPAR-γ Fold activation (PPARγ [1]; @ .01 uM): 1 x
Molecule: CCCc1nc2c(C)cc(Br)cc2n1CCOc1ccc(CC2SC(=O)NC2=O)cc1C(=O)OC (stereo not drawn) [Methyl 2-(2-(6-bromo-4-methyl-2-propyl-1H-benzo[d]imidazol-1-yl)ethoxy)-5-((2,4-dioxothiazolidin-5-yl)methyl)benzoate]

- PPAR-γ Fold activation (PPARγ [1]; concentration not given): No activity
Molecule: CCCc1nc2c(C)cc(-c3nc4ccccc4n3C)cc2n1Cc1ccc(-c2ccc(C(=O)O)cc2C(=O)O)cc1 [averysartan]

Molecule: CCCc1nc2c(C)cc(-c3nc4ccccc4n3C)cc2n1Cc1ccc(-c2ccccc2C(=O)O)cc1 [telmisartan]
- activation of the receptor relative to maximum level of activity achieved by the full agonists pioglitazone and rosiglitazone (PPARγ [1]): 25%-30%
- PPARγ activation (PPARγ [1]; tested at concentrations 1-5 mM): 5-8 fold
- HDL cholesterol [4, 5]: 50 mg/dL
- blood pressure [4, 5]: 143/91
- fasting glucose [4, 5]: 188 mg/dL
- triglyceride [4, 5]: 281 mg/dL
- HDL cholesterol [4, 6]: 60 mg/dL
- blood pressure [4, 6]: 131/81
- glucose level [4, 6]: 145 mg/dL
- triglyceride level [4, 6]: 178 mg/dL
- blood pressure ([2]; 80 mg/day, throughout the observation period): normalized and remained normal
- blood glucose, insulin and triglyceride concentrations ([2]; 80 mg/day, up to week 10): progressively decreased
- insulin resistance, HOMA-IR score ([2]; 80 mg/day, up to week 10): improvement in insulin resistance
- fluid retention, peripheral edema, pulmonary edema, or congestive heart failure on clinical examination ([2]; human, in vivo): no evidence of any increase
- insulin resistance and triglycerides ([2]; switched back from valsartan, following 4 weeks (week 19)): again improved
- activation of PPARγ (PPARγ [3]): has been shown to activate PPARγ

From US20050020654A1, “Novel PPAR agonists, pharmaceutical compositions and uses thereof” (priority 2003, published 2005)
